In PMC11052077, “Discovery of Dolutegravir Derivative against Liver Cancer via Inducing Autophagy and DNA Damage” (Molecules, 2024):

How the values were obtained:
Type in all cases: cell-based, human
Huh7 cells [1] = test: Cell cycle assay, PI staining flow cytometry; details: 8 μM, 48 h
Procedure: To further investigate the effects of compounds 5e and 5p on regulation of the cell cycle, we treated cancer cells with different concentrations of 5e or 5p for 48 h and then analyzed cell cycle distribution using flow cytometry.
Huh7 cells were cultured in 6-well plates with a density of 3 × 10^5 cells/well. Cells were treated with different concentrations (0, 4, and 8 μM for Huh7) of 5e or 5p for 48 h respectively. Then the cell cycle was determined by PI staining using the flow cytometer(Thermo, Beijing, China).

Huh7 cells [2] = test: Plate clone formation assay; details: 0, 2, 4, 8, 16, 32 μM, 48 h
Procedure: (§1) To further assess the anti-proliferative activity of dolutegravir derivatives, LIVE/DEAD staining was conducted. Huh7 cells were treated with 5 μM or 10 μM of 5e and 5p for 24 h, followed by live and dead cell imaging and quantification. […] This may be attributed to significant cell proliferation suppression at 10 μM concentration, leading to a limited number of viable cells. Furthermore, to validate the impact of dolutegravir derivatives on cell proliferation, a plate clone formation assay was performed. Cells were exposed to various concentrations (0, 2, 4, 8, 16, and 32 μM) of 5e or 5p.
Huh7 cells were seeded into 6-well plates at a density of 100–500 cells/well. After 10 days culture, cells were added with 5e or 5p at different concentrations (0, 2 μM, 4 μM, 8 μM, 16 μM, 32 μM) for 48 h. Then, cells were fixed by 4% paraformaldehyde and stained by Giemsa dye. An optical microscope was used to photograph cells and the clone numbers were counted.

γ-H2AX = test: Western blot, γ-H2AX; details: 2, 4, 8 μM, 48 h, Huh7, western blot
Procedure: (§2) To elucidate the impact of compounds 5e and 5p on the regulation of cell proliferation, we examined the expression levels of key proteins involved in cell growth processes, encompassing autophagy, apoptosis, cell cycle, and DNA damage (Figure 7).
(§3) Protein expression levels were measured by western blot. Huh7 cells were cultured in 12-well plates and different concentrations (0, 2, 4, 8 μM) of 5e and 5p were added for 48 h. Proteins were extracted from whole cells using radio-immunoprecipitation assay (RIPA) buffer containing a protease/phosphatase inhibitor cocktail (CST). Then, 10–15% sodium dodecyl sulfate polyacrylamide gel electrophoresis and nitrocellulose membranes (Millipore) were employed to separate and collect proteins. Antibodies used include LC3 (3868s, CST), Caspase3 (9662, CST), cyclin D (2922s, CST), cyclin E (20808s, CST), γH2AX (9718s, CST), β-Catenin (9562s, CST), and β-actin (4967s, CST).

Caspase3 = test: Western blot, Caspase3; details: 2, 4, 8 μM, 48 h, Huh7, western blot
Procedure: as §2, §3

Huh7 cells [3] = test: CCK8 cell viability assay, Huh7
Procedure: (§4) This study aimed to assess the anti-proliferative activity of dolutegravir-1,2,3-triazole derivatives on hepatocellular carcinoma cell lines, Huh7 and hepG2. A comprehensive CCK8 assay was employed to evaluate the impact of these compounds on cell viability, with cells treated at a concentration of 20 μM for 48 h. HRM cells, a normal cell line, were included as a control for comparative analysis.
(§5) Human hepatocellular carcinoma cell lines Huh7 and hepG2 were obtained from ATCC (Manassas, VA, USA). Cells were cultured in DMEM or RPMI 1640 medium containing 10% FBS and 1% penicillin/streptomycin at 37 °C with a 5% CO2-humidified atmosphere.
(§6) CCK8 assay was used to measure cell viability. Cells with a density of 1 × 10^4 cells/well were seeded on 96-well plates. After adhesion, cells were treated with different diluted compounds or vehicle control DMSO and continued to be cultured for 48 h or 72 h, respectively. Then, CCK8 reagent was added for one hour incubation at 37 °C with 5% CO2. Absorbance was measured using a Microplate spectrophotometer (Thermo, Waltham, MA, USA) at 450 nm. The ratio of cell viability of control was taken as 100%. […] Then, IC50 of compounds were investigated using the prism statistical software 7.0.

[4] = tested on: Cyclin D, Cyclin E, β-catenin; test: Western blot, cell cycle-related proteins; details: 2, 4, 8 μM, 48 h, Huh7, western blot
Procedure: as §2, §3

Huh7 cells [5] = test: LIVE/DEAD staining (live and dead cell measurement); details: 5 μM or 10 μM, 24 h
Procedure: as §1
Huh7 cells with a density of 5 × 10^3 cells/well were seeded on 96-well plates. Then, different concentrations (0, 5 μM, 10 μM) of 5e or 5p were treated for 24 h. Cells were then stained with the LIVE/DEAD Assay Kit, observed and photographed using the fluorescent microscope.

hepG2 cells = test: CCK8 cell viability assay, hepG2
Procedure: as §4, §5, §6

Huh7 cells [6] = test: Apoptosis assay, Annexin V-FITC/PI flow cytometry; details: 48 h
Procedure: Given the observed inhibitory effects of compounds 5e and 5p on cancer cell proliferation, we further investigated their impact on cell apoptosis. Apoptosis analysis was conducted on Huh7 cells treated with varying concentrations of 5e or 5p, utilizing Annexin V-FITC and PI staining, followed by flow cytometry to quantify apoptotic cells.
Huh7 cells were cultured in 6-well plates with a density of 3 × 10^5 cells/well. Different concentrations of 5e or 5p were added to cells for 48 h, respectively. The concentrations were 0, 2, 4, and 8 μM for Huh7 cells. After treatment, Annexin V-FITC Apoptosis Detection Kit (Elabscience, Wuhan, China) was used to determine the apoptotic ratio and FlowJo software v10 was used to analyze.

γ-H2AX in Huh7 cells = test: γ-H2AX immunofluorescence / DNA damage staining, Huh7; details: Huh7, 5, 10, 20 μM, 24 h
Procedure: The phosphorylation of H2AX serves as a highly specific and sensitive molecular marker for DNA damage. Through Western blotting, we have confirmed that compounds 5e and 5p induce DNA damage in Huh7 and HepG2 cells. To further substantiate the inhibitory effect of compounds 5e and 5p on Huh7 cells, immunofluorescence was employed to assess their correlation with γ-H2AX.
The Huh7 cells with a density of 5 × 10^3 cells per well were seeded in a 96-well plate for overnight incubation. Then, different concentrations (0, 5 μM, 10 μM, 20 μM) of the compounds 5e and 5p were added to cells for 24 h. A DNA damage detection kit was used to dye the cells, and cells were observed and photographed by a fluorescent microscope. Cell nucleus is stained blue, and DNA damage is shown as green fluorescence.

**Q.** Which results are given for `COc1c2n(cc(C(=O)Nc3cccc(-c4cn(-c5cccc(C(F)(F)F)c5)nn4)c3)c1=O)CC1OCCC(C)N1C2=O` (stereo not drawn) [Compound 5p]?
**A.** effect on S phase of cell cycle (Huh7 cells [1]): clearly decreased phase of S; plate clone formation (Huh7 cells [2]): dose-dependent anti-proliferative activity; γ-H2AX protein expression (DNA damage) (γ-H2AX): induction of γ-H2AX; Caspase3 protein expression (Caspase3): remained unchanged; Cell Viability (100%), 20 μM, 48 h, Huh7 (Huh7 cells [3]; 20 μM, Huh7, CCK8, control taken as 100%): 5.93%; IC50 (Huh7 cells [3]; 48 h, Huh7, CCK8, read-out: half maximal inhibitory concentration (IC50), Huh7): 5.42 ± 0.43 µM; Cyclin D, Cyclin E or β-catenin expression [4]: no significant differences; live Huh7 cells (LIVE/DEAD staining) (Huh7 cells [5]): decreased with increasing concentration; ratio of dead to live cells (Huh7 cells [5]): increased compared to the untreated group; Cell Viability (100%), 20 μM, 48 h, hepG2 (hepG2 cells; 20 μM, hepG2, CCK8, control taken as 100%): 30.66%; IC50 (hepG2 cells; 48 h, hepG2, CCK8, read-out: half maximal inhibitory concentration (IC50), hepG2): 4.83 ± 1.17 µM; apoptosis in Huh7 cells (Huh7 cells [6]; 2 μM): no significant impact; apoptosis in Huh7 cells (Huh7 cells [6]; 4 μM): remarkable apoptosis; apoptosis in Huh7 cells (Huh7 cells [6]; 8 μM): remarkable apoptosis; γ-H2AX expression by immunofluorescence (γ-H2AX in Huh7 cells): increased the expression of γ-H2AX
